Source: publication PMC11728000, “Antitumor Activity and Multi-Target Mechanism of Phenolic Schiff Bases Bearing Methanesulfonamide Fragments: Cell Cycle Analysis and a Molecular Modeling Study” (International Journal of Molecular Sciences, 2024)
Like-named read-outs stand apart in the source and are kept apart here.

Assays:
[1] = tested on: RPMI-8226; set-up: method as in https://dtp.cancer.gov/dtpstandard/dwindex/index.jsp; details: PRMI-8226; ref https://dtp.cancer.gov/dtpstandard/dwindex/index.jsp; cited from earlier work
[2] = tested on: HL-60(TB); set-up: method as in https://dtp.cancer.gov/dtpstandard/dwindex/index.jsp; details: ref https://dtp.cancer.gov/dtpstandard/dwindex/index.jsp; cited from earlier work
[3] = tested on: M14; experiment: NCI anticancer screening (SRB), Melanoma subpanel; assay type: cell-based, human; details: for GI%: 10.0 µM in one dose
[4] = tested on: U251; experiment: NCI anticancer screening (SRB), CNS Cancer subpanel; assay type: cell-based, human; details: for GI%: 10.0 µM in one dose
[5] = tested on: EKVX; experiment: NCI anticancer screening (SRB), Non-Small Cell Lung Cancer subpanel; assay type: cell-based, human; details: for GI%: 10.0 µM in one dose
[6] = tested on: DU-145; experiment: NCI anticancer screening (SRB), Prostate Cancer subpanel; assay type: cell-based, human; details: for GI%: 10.0 µM in one dose
[7] = tested on: SW-620; experiment: NCI anticancer screening (SRB), Colon Cancer subpanel; assay type: cell-based, human; details: for GI%: 10.0 µM in one dose
[8] = tested on: UO-31; experiment: NCI anticancer screening (SRB), Renal Cancer subpanel; assay type: cell-based, human; details: for GI%: 10.0 µM in one dose
[9] = tested on: LOX IMVI; experiment: NCI anticancer screening (SRB), Melanoma subpanel; assay type: cell-based, human; details: for GI%: 10.0 µM in one dose
[10] = tested on: HL-60(TB); experiment: NCI anticancer screening (SRB), Leukemia subpanel; assay type: cell-based, human; details: for GI%: 10.0 µM in one dose
[11] = tested on: NCI-H23; experiment: NCI anticancer screening (SRB), Non-Small Cell Lung Cancer subpanel; assay type: cell-based, human; details: for GI%: 10.0 µM in one dose
[12] = tested on: K-562; experiment: NCI anticancer screening (SRB), Leukemia subpanel; assay type: cell-based, human; details: for GI%: 10.0 µM in one dose
[13] = tested on: OVCAR-4; experiment: NCI anticancer screening (SRB), Ovarian Cancer subpanel; assay type: cell-based, human; details: for GI%: 10.0 µM in one dose
[14] = tested on: T-47D; experiment: NCI anticancer screening (SRB), Breast Cancer subpanel; assay type: cell-based, human; details: for GI%: 10.0 µM in one dose
[15] = tested on: SF-539; experiment: NCI anticancer screening (SRB), CNS Cancer subpanel; assay type: cell-based, human; details: for GI%: 10.0 µM in one dose
[16] = tested on: SK-MEL-2; experiment: NCI anticancer screening (SRB), Melanoma subpanel; assay type: cell-based, human; details: for GI%: 10.0 µM in one dose
[17] = target: EGFR (Homo sapiens, UniProt P00533); experiment: EGFR tyrosine kinase inhibition assay (Kinase-Glo MAX)
EGFR, sequence (P00533 25-1210): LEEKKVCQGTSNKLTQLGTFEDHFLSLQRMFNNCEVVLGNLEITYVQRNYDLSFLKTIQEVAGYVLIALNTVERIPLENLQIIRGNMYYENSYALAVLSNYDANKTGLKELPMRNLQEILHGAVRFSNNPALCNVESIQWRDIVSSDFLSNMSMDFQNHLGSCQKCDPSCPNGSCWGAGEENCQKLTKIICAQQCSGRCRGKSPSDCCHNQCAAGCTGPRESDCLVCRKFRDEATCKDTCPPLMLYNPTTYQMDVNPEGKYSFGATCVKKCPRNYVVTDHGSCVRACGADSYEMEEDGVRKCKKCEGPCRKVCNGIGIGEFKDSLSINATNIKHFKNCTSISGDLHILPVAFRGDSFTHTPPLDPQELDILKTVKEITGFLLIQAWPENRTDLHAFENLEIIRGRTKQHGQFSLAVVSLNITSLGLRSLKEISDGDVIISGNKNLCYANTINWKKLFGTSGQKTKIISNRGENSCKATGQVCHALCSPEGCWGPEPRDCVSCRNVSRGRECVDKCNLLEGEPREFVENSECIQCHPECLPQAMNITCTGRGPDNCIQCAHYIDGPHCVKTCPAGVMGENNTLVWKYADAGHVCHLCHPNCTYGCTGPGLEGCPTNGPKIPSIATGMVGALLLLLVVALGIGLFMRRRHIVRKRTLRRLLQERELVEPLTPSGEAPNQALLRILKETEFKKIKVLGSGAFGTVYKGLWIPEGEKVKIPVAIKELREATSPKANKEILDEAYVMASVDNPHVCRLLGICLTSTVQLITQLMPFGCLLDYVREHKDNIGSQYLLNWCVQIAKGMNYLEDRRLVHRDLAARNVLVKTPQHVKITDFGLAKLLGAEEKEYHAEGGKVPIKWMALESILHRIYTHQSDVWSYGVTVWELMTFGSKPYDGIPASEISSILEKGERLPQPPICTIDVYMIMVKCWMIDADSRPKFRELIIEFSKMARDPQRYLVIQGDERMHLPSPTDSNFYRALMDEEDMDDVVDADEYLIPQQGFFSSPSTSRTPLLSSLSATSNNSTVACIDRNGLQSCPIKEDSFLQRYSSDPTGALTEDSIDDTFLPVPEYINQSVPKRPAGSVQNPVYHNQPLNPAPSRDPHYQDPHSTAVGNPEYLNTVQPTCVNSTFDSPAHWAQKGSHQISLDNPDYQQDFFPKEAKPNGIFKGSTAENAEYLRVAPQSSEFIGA

[18] = tested on: caspase-8; experiment: Apoptotic markers assay, caspase-8 level in MCF-7 cells; assay type: cell-based, human; details: MCF-7 cells treated at IC50 concentrations; vs untreated control = 1
Description: We measured the apoptosis promoter Bax levels, the apoptosis inhibitor Bcl−2, and the apoptosis coordination enzymes caspase-8 and caspase-9 [32].
The apoptotic marker method was carried out using the reported procedure using MCF-7, the cancer cell line (Supplementary Materials). […]
7. Caspase-8 and 9 activation assay
A breast carcinoma (MCF-7) cell line was obtained from ATCC. […]
allowed cells to grow at 37 °C, stimulated with the compounds to be tested for caspase-8 or caspase-9 and lysed with Cell Extraction Buffer. Standard Diluent Buffer was used to dilute the lysate over the range of the assay and measure human active caspase-8 or caspase-9 content. (cells are Plated in a density of 1.2-1.8 X 10,000 cells/well in a volume of 100 µL complete growth medium + 100 µL of the tested compound per well in a 96-well plate for 24/48 h before the enzyme assay).
8. Evaluation of Bax and Bcl-2 expressions m RNA isolation was carried out using an RNeasy extraction kit, up to 1 X 107 cells. They were disrupted in Buffer RLT and homogenized. Ethanol was added to the lysate to promote the selective binding of RNA to the RNeasy membrane. Then, the sample was applied to the RNeasy

[19] = tested on: HS 578T; experiment: NCI anticancer screening (SRB), Breast Cancer subpanel; assay type: cell-based, human; details: for GI%: 10.0 µM in one dose
[20] = in vitro; details: human
Description: the measured protein at the end of the drug treatment as compared to that at the beginning) indicating a net loss of cells following treatment was calculated from [(Ti − Tz)/Tz] […] = − 50.
Values were calculated for each of these three parameters if the activity level was reached; however, if the effect was not reached or exceeded, that parameter's value was expressed as more or less than the maximum or minimum concentration tested. The log GI50, log TGI, and log LC50 were then determined and defined as the mean of the logs of the individual GI50, TGI, and LC50 values. The lowest values are obtained with the most sensitive cell lines. The compound with log GI50 values −4 and <−4 was declared active.
2. In vitro cytotoxic activity towards normal fibroblast (WI-38) cells Cell Lines were obtained from the American Type Culture Collection; cells were cultured using DMEM (Invitrogen/Life Technologies) supplemented with 10% FBS (Hyclone), ten ug/ml of insulin (Sigma), and 1% penicillin–streptomycin. Cultures were removed from the incubator into a laminar flow hood, reconstituted with 3 mL of balanced salt solution without phenol red and serum, and then added to an amount equal to 10% of the culture medium volume. Cultures returned to the incubator for 2–4 h. After the incubation period, the resulting formazan crystals dissolved […]
medium volume. The absorbance was measured Spectrophotometrically at a wavelength of 570 […]
3. In vitro cyclooxygenase (COX-2) inhibition assay
The ability of the test compounds to inhibit COX-2 was determined using an enzyme immunoassay […]
manufacturer’s instructions.

[21] = tested on: SF-268; experiment: NCI anticancer screening (SRB), CNS Cancer subpanel; assay type: cell-based, human; details: for GI%: 10.0 µM in one dose
[22] = tested on: SK-MEL-5; experiment: NCI anticancer screening (SRB), Melanoma subpanel; assay type: cell-based, human; details: for GI%: 10.0 µM in one dose
[23] = tested on: CAKI-1; experiment: NCI anticancer screening (SRB), Renal Cancer subpanel; assay type: cell-based, human; details: for GI%: 10.0 µM in one dose
[24] = tested on: OVCAR-8; experiment: NCI anticancer screening (SRB), Ovarian Cancer subpanel; assay type: cell-based, human; details: for GI%: 10.0 µM in one dose
[25] = tested on: HCT-116; experiment: NCI anticancer screening (SRB), Colon Cancer subpanel; assay type: cell-based, human; details: for GI%: 10.0 µM in one dose
[26] = tested on: SF-295; experiment: NCI anticancer screening (SRB), CNS Cancer subpanel; assay type: cell-based, human; details: for GI%: 10.0 µM in one dose
[27] = tested on: BT-549; experiment: NCI anticancer screening (SRB), Breast Cancer subpanel; assay type: cell-based, human; details: for GI%: 10.0 µM in one dose
[28] = tested on: KM12; experiment: NCI anticancer screening (SRB), Colon Cancer subpanel; assay type: cell-based, human; details: for GI%: 10.0 µM in one dose
[29] = tested on: TK-10; experiment: NCI anticancer screening (SRB), Renal Cancer subpanel; assay type: cell-based, human; details: for GI%: 10.0 µM in one dose
[30] = tested on: SK-MEL-28; experiment: NCI anticancer screening (SRB), Melanoma subpanel; assay type: cell-based, human; details: for GI%: 10.0 µM in one dose
[31] = Homo sapiens, five concentrations

Cc1ccc(-c2cc(C(F)(F)F)nn2-c2ccc(S(N)(=O)=O)cc2)cc1 [Celecoxib, celecoxib]
GI50 [1]: 3980 nM | GI50 [2]: 15800 nM

CS(=O)(=O)Nc1ccc(C(=O)NN=Cc2ccccc2O)cc1 [Compound 7]
GI% [3]: 44% | GI% [4]: 56% | GI% [5]: 26% | GI% [6]: 33% | GI% [7]: 35% | GI% [8]: 64% | GI% [9]: 53% | GI% [10]: 22% | GI% [11]: 27% | GI% [12]: 26% | GI% [13]: 53% | GI% [14]: 18% | GI% [15]: 40% | GI% [16]: 22% | IC50 [17]: 752 ± 50 nM | Casp8, Gene Expression (Fold Change) [18]: 5.171 fold change | GI% [19]: 11% | IC50 [20]: 111000 nM | GI% [21]: 48% | GI% [22]: 33% | GI% [23]: 35% | GI% [24]: 32% | GI% [25]: 59% | GI% [26]: 35% | GI% [27]: 27% | GI% [28]: 35% | GI% [29]: 21% | GI% [30]: 37%

CCN(CC)c1ccc(C=NNC(=O)c2ccc(NS(C)(=O)=O)cc2)c(O)c1 [Compound 8]
GI% [3]: 100% | GI50 [3, 31]: 351 nM | GI% [4]: 76% | GI50 ([4]; Homo sapiens, U-251, five concentrations): 226 nM | GI% [5]: 84% | GI50 [5, 31]: 386 nM | GI% [6]: 69% | GI50 [6, 31]: 685 nM | GI% [7]: 63% | GI50 [7, 31]: 471 nM | GI% [8]: 87% | GI50 [8, 31]: 346 nM | GI% [9]: 100% | GI50 [9, 31]: 209 nM | GI% [10]: 99% | GI50 [10, 31]: 300 nM | GI% [11]: 77% | GI50 [11, 31]: 1160 nM | GI% [12]: 86% | GI50 ([12]; Homo sapiens, K562, five concentrations): 492 nM | GI% [13]: 69% | GI50 [13, 31]: 388 nM | GI% [14]: 74% | GI50 ([14]; Homo sapiens, T47D, five concentrations): 382 nM | GI% [15]: 93% | GI50 [15, 31]: 362 nM | GI% [16]: 59% | GI50 [16, 31]: 749 nM | IC50 [17]: 166 ± 33 nM | Casp8, Gene Expression (Fold Change) [18]: 6.456 fold change | GI% [19]: 44% | GI50 [19, 31]: 1470 nM | IC50 [20]: 82100 nM | GI% [21]: 77% | GI50 [21, 31]: 252 nM | GI% [22]: 100% | GI50 [22, 31]: 1130 nM | GI% [23]: 81% | GI50 [23, 31]: 464 nM | GI% [24]: 88% | GI50 [24, 31]: 312 nM | GI% [25]: 78% | GI50 ([25]; Homo sapiens): 263 nM | GI% [26]: 90% | GI50 [26, 31]: 517 nM | GI% [27]: 88% | GI50 [27, 31]: 569 nM | GI% [28]: 85% | GI50 [28, 31]: 509 nM | GI% [29]: 52% | GI50 [29, 31]: 1050 nM | GI% [30]: 77% | GI50 [30, 31]: 381 nM

C#Cc1cccc(Nc2ncnc3cc(OCCOC)c(OCCOC)cc23)c1 [Erlotinib, erlotinib]
GI50 [1]: 25100 nM | GI50 [2]: 25100 nM
